In US20090252778A1, “METHODS AND DEVICES FOR REDUCING TISSUE DAMAGE AFTER ISCHEMIC INJURY” (INNOVATIONAL HOLDINGS LLC., priority 2006, published 2009):

Assay: in vitro cumulative release from dual drug stent
Assay type: physicochemical
Conditions: insulin and Pimecrolimus eluting stent
Procedure: FIG. 6a is a graph showing the in vitro cumulative release of insulin over time from a dual drug stent. FIG. 6b is a graph showing the in vitro cumulative release of pimecrolimus over time from a dual drug stent. A stent for eluting insulin and Pimecrolimus was made substantially according to the description in A above. The stent was loaded with a base region, an insulin drug region, and a Pimecrolimus cap region. The base contained PLGA and/or PEVA; the drug contained insulin 250 μg total drug load (TDL) and PLGA; and the cap contained PEVA, PLGA/PLA-PCL and Pimecrolimus 300 μg TDL, and 6 deposits of PLGA/PLA-PCL. FIGS. 6A and 6B show the release profile of the insulin and Pimecrolimus eluting stent, respectively, over time. As shown in FIG. 6A at least about 50% of the insulin is released in the first 48 hours.

Row | Compound | release profile of Pimecrolimus (in vitro cumulative release) (Pimecrolimus 300 μg TDL in cap region, FIG. 6B) | insulin released (in vitro cumulative release) (insulin 250 μg TDL in PLGA, in the first 48 hours, FIG. 6A)
1 | CC[C@@H]1/C=C(\C)C[C@H](C)C[C@H](OC)[C@H]2O[C@@](O)(C(=O)C(=O)N3CCCC[C@H]3C(=O)O[C@H](/C(C)=C/[C@@H]3CC[C@H](Cl)[C@H](OC)C3)[C@H](C)[C@@H](O)CC1=O)[C@H](C)C[C@@H]2OC [Pimecrolimus] | high initial release rate followed by a slower prolonged release | –
2 | insulin | – | at least 50%
